pIC50: −log10 of the molar value.
Columns and labels:
[1] = tested on: HL-60; test: Concentration required for endonucleolytic DNA cleavage in HL-60 cells; format: functional, cell-based; details: Homo sapiens
[2] = tested on: HL-60; test: In vitro antiproliferative activity against HL-60 myeloid leukemia HL-60 cells in culture; format: functional, cell-based; details: Homo sapiens

## C=C1C(=O)O[C@H](CCc2ccc(OC)cc2)[C@H]1C
[1]
  Concentration: 5 µM
[2]
  pIC50: 5.40

Source: ChEMBL document CHEMBL1136051, “Synthesis and antiproliferative activity of a new compound containing an alpha-methylene-gamma-lactone group” (J Med Chem, 2002)
